In PMC12358994, “Proline Homologation in Melanostatin Neuropeptide: Discovery of Potent Modulators of the Dopamine D2 Receptors” (ACS Medicinal Chemistry Letters, 2025):
Peptide text beside a SMILES is read from it.

Key:
[1] = tested on: differentiated SH-SY5Y neuronal cells; assay: MTT reduction assay in differentiated SH-SY5Y cells; format: cell-based, human; settings: 125 μM, 48 h; positive control for cytotoxicity
Protocol: (§1) Following a protocol established in our research group, , these compounds were tested at 100 μM concentration using the 3-(4,5-dimethylthiazol-2-yl)-2,5-diphenyltetrazolium bromide (MTT) reduction and the neutral red (NR) uptake assays.
(§2) 5 Neurotoxic effects of the synthesized compounds were examined via MTT reduction (A) and NR uptake (B) assays in differentiated SH-SY5Y neuronal cells. Cells were incubated for 48 h with 1, 9, MIF-1 (100 μM), or 6-OHDA (125 μM). Compounds were solubilized in phosphate-buffered saline (PBS) solution. Results are reported as a percentage relative to the control (PBS) and shown as mean ± standard deviation. Data were collected from 16 to 36 wells across 9 independent experiments for the MTT reduction assay and from 12 wells and 3 independent experiments for the NR uptake assay. Statistical analyses were performed using the analysis of variance (ANOVA) test, followed by Tukey’s post hoc test (*p < 0.05 and ****p < 0.0001 vs control).
(§3) 4. Cytotoxicity in Human Neuronal SH-SY5Y Cells. The SH-SY5Y cell line was sourced from Sigma-Aldrich (Taufkirchen, Germany). DMEM medium [DMEM (1x) + GlutaMAX], DMEM/F-12, and Fetal Bovine Serum (FBS) were purchased from Gibco and Alfagene (Carcavelos, Portugal). Penicillin and Streptomycin were obtained from Biotecnómica (Porto, Portugal). Phosphate-buffered solution (PBS) without calcium and magnesium was acquired from Biochrom (Berlin, Germany). Trypsin/EDTA solution, 0.4% (w/v) trypan blue solution, NR solution, RA, and TPA were also obtained from Sigma-Aldrich (Germany). DMSO and HBSS (Hanks' Balanced Salt Solution) were purchased from Merck (Germany). MTT was sourced from Alfa Aesar (Kandel, Germany). 6-OHDA hydrobromide (CAS: 636-00-0) was acquired from Sigma-Aldrich (Germany).
(§4) Cell counts were performed on a Neubauer chamber using a Nikon Eclipse TS100 microscope from Nikon (Japan), and plate readings (MTT reduction and NR uptake assays) were conducted on a BioTek Synergy HT plate reader from BioTek (USA). Tissue culture flasks (25 cm²) and tissue culture 48 -well plates were purchased from TPP (Switzerland), while 5-, 10-, and 25-mL serological pipettes were obtained from Nerbe-Plus (Germany). Throughout all procedures, SH-SY5Y cells were maintained in a 5% CO2 incubator from Heraeus (Germany) at 37 °C. Cells were trypsinized after reaching confluence before experiments or for general culture maintenance.
(§5) Human neuroblastoma SH-SY5Y cells were maintained in complete DMEM medium supplemented with 10% (v/v) FBS and 1% (v/v) antibiotics (100 units/mL penicillin and 100 μg/mL streptomycin), at 37 °C in a 5% CO2 incubator throughout all procedures. […] After trypsin inactivation, cells were counted using a 0.4% (w/v) trypan blue solution and an optical microscope. […]

[2] = tested on: differentiated SH-SY5Y neuronal cells; assay: Neutral red (NR) uptake assay in differentiated SH-SY5Y cells; format: cell-based, human; settings: 125 μM, 48 h; positive control for cytotoxicity
Protocol: as §1, §2, §3, §4, §5

[3] = MTT reduction assay in differentiated SH-SY5Y cells; format: cell-based, human; settings: human
Protocol: as §1, §2, §3, §4, §5

[4] = Neutral red (NR) uptake assay in differentiated SH-SY5Y cells; format: cell-based, human; settings: human
Protocol: as §1, §2, §3, §4, §5

[5] = tested on: dopamine receptors isolated from bovine caudate tissue; parameters: method as in Johnson and co-workers; settings: 100 nM; ref Johnson and co-workers; cited from earlier work
[6] = biological target: human D2R (Homo sapiens, UniProt P14416); assay: D2R functional assay in the absence of dopamine (intrinsic agonist activity); format: cell-based
Protocol: To exclude intrinsic agonist activity and validate the PAM mechanism of the best-performing MIF-1 derivatives 1 and 9, the same experiments were conducted in the absence of dopamine and compared to the concentration–response curve of dopamine alone (Figure ).
3 Concentration–response for compounds 1 and 9 obtained at human D2R in the absence of dopamine (DA), with the DA concentration–response curve included for reference. Data are presented as the mean ± standard deviation from three independent experiments.

Sequence of human D2R (P14416 whole entry): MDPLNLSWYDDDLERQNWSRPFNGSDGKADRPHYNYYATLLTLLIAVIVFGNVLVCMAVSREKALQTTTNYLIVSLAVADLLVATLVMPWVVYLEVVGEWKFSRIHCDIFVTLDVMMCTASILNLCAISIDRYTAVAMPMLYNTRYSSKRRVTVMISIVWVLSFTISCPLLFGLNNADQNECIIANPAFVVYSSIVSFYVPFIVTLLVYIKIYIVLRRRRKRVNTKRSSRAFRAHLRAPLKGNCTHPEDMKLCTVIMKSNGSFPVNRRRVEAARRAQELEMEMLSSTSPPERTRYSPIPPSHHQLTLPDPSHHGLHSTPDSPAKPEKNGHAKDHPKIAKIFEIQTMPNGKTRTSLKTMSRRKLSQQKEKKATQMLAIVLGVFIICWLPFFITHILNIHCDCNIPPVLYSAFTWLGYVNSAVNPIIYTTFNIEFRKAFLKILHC

Compound	MTT reduction, percentage relative to control (PBS) [1]	NR uptake, percentage relative to control (PBS) [2]	viability at 48 h, 100 µM [3]	viability at 48 h, 100 µM [4]	enhancement of specific binding of [3H]-ADTN (maximal effect) [5]	intrinsic agonistic effect [6]
NCCc1cc(O)c(O)cc1O [6-OHDA, 6-hydroxydopamine, reference compound]	45.64 ± 11.85%	57.26 ± 7.41%	–	–	–	–
CC(C)C[C@H](NC(=O)[C@@H]1CCCN1)C(=O)NCC(N)=O [MIF-1, L-prolyl-L-leucylglycinamide, reference compound] (H-Pro-Leu-Gly-NH2)	–	–	105 ± 6%	97.8 ± 8.56%	46.2 ± 13.4%	–
CC(C)C[C@H](NC(=O)[C@@H]1CCCCN1)C(=O)NCC(N)=O [compound 1, L-pipecolyl-L-leucylglycinamide] (HELM PEPTIDE1{[O=C([C@@H]1CCCCN1)[*:2]].L.G.[am]}$$$$V2.0)	–	–	105 ± 7.1%	102 ± 3.48%	58.7 ± 9.3%	no intrinsic agonistic effect
COC(=O)CNC(=O)[C@H](CC(C)C)NC(=O)[C@@H]1CCCCN1 [compound 9, methyl L-pipecolyl-L-leucylglycinate] (HELM PEPTIDE1{[O=C([C@@H]1CCCCN1)[*:2]].L.G.[CO[*:1]]}$$$$V2.0)	–	–	105 ± 6.8%	100 ± 2.09%	–	no intrinsic agonistic effect
